Values after ≈ are worked out from the molar mass of the structure shown.
Assays:
[1] = molecular target: T1, Protein deacetylase HDAC6 (Homo sapiens, UniProt Q9UBN7); experiment: Inhibition of full length TEV-cleavable N-terminal His6-tagged human recombinant HDAC6 using Ac-RGK (Ac)-AMC as substrate preincubated for 20 hrs followed by substrate addition and measured after 3 hrs by microplate reader analysis
T1 sequence (Q9UBN7 whole entry): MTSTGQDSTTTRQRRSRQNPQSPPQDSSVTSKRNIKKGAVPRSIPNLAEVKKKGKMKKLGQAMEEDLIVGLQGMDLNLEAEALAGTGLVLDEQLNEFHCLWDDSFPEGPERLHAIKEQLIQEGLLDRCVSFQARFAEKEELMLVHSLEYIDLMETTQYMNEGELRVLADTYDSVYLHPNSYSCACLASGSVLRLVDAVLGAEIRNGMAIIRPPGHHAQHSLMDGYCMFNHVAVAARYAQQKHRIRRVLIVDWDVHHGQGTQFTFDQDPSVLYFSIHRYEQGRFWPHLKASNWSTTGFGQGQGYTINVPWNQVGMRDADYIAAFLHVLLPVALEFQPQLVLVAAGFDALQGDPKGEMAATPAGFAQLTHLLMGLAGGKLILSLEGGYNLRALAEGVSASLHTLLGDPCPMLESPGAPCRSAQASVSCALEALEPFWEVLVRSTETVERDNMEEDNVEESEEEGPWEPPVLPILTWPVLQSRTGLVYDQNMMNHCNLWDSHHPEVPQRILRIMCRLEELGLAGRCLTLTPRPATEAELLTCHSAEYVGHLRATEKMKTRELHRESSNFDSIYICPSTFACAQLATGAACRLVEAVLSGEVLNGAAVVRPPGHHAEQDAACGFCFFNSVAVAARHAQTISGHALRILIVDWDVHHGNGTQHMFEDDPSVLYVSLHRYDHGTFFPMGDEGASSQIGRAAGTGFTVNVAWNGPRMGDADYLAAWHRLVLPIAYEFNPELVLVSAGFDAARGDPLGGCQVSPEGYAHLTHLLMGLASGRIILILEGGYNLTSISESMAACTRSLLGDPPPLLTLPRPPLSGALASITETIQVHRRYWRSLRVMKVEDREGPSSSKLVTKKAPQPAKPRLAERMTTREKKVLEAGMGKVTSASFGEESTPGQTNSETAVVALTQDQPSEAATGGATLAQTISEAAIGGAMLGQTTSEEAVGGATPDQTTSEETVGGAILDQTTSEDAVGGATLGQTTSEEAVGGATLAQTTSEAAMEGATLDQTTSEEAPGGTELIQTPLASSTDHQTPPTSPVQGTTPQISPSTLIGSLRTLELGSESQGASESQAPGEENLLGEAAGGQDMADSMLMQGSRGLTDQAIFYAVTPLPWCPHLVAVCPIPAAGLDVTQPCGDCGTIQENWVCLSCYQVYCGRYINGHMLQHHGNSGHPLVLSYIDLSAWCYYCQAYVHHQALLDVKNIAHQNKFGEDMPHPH

[2] = Aqueous solubility of the compound at pH 7.4; format: physicochemical
[3] = molecular target: T1, Protein deacetylase HDAC6; experiment: Inhibition of HDAC6 in human BEAS-2B cells assessed as deacetylation of acetylated histone-3 level incubated for 24 hrs by Western blot analysis; format: cell-based
[4] = Metabolic stability in human liver microsomes assessed as disappearance of parent compound; format: ADME, Microsome; details: read-out: CLH
Histone deacetylase 1 = Histone deacetylase 1 (Homo sapiens, UniProt Q13547); experiment: Inhibition of human recombinant HDAC1 incubated for 15 mins by fluorimetry analysis
Histone deacetylase 3 = Histone deacetylase 3 (Homo sapiens, UniProt O15379); experiment: Inhibition of human recombinant HDAC3 incubated for 10 mins by Spectrophotometric analysis
Histone deacetylase 8 = molecular target: T2, Histone deacetylase 8 (Homo sapiens, UniProt Q9BY41); experiment: Inhibition of human recombinant HDAC8 incubated for 60 mins by fluorimetry analysis
T2 sequence (Q9BY41 whole entry): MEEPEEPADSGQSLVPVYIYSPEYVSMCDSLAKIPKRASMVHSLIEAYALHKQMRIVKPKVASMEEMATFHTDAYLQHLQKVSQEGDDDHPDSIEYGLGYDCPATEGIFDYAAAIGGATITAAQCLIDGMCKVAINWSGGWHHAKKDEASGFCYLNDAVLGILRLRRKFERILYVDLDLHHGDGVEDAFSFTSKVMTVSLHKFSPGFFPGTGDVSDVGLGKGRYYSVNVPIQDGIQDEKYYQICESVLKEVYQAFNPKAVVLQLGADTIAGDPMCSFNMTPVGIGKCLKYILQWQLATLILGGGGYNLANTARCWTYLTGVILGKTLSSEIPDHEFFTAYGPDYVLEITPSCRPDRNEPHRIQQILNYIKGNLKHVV

[5] = molecular target: T3, Polyamine deacetylase HDAC10 (Homo sapiens, UniProt Q969S8); experiment: Inhibition of human recombinant HDAC10 incubated for 45 mins by fluorimetry analysis
T3 sequence (Q969S8 whole entry): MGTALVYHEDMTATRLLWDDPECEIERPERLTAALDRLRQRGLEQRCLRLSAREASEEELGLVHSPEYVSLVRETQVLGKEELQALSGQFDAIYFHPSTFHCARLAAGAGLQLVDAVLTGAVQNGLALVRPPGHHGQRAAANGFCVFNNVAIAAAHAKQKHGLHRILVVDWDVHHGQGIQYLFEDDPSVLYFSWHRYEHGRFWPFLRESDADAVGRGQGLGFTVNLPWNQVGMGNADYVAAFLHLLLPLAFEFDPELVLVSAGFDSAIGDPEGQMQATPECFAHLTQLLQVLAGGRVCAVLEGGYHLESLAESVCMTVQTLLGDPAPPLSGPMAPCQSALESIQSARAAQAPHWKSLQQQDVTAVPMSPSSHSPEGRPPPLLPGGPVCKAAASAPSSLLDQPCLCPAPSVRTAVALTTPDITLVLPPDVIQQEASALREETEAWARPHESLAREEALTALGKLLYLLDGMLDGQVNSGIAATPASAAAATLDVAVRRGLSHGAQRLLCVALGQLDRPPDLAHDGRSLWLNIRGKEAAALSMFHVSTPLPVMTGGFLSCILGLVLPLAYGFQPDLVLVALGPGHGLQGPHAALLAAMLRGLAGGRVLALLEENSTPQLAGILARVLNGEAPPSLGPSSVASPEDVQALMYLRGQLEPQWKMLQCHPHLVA

Histone deacetylase 11 = molecular target: T4, Histone deacetylase 11 (Homo sapiens, UniProt Q96DB2); experiment: Inhibition of human recombinant HDAC11 incubated for 30 mins by fluorimetry analysis
T4 sequence (Q96DB2 whole entry): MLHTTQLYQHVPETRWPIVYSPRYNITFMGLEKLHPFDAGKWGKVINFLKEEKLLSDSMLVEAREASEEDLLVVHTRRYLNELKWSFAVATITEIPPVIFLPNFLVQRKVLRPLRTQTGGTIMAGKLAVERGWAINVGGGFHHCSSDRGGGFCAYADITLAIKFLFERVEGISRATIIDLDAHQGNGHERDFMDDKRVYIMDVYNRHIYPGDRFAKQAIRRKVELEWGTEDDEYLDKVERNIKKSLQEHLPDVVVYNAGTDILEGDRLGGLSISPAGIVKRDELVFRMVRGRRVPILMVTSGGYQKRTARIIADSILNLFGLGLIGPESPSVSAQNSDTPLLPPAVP

[6] = molecular target: T1, Protein deacetylase HDAC6; experiment: Stability of the compound assessed as full-length human HDAC6 mediated-drug degradation measured after 96 hrs by time-resolved mass spectrometry analysis; format: ADME

Histone deacetylase 1, sequence (Q13547 whole entry): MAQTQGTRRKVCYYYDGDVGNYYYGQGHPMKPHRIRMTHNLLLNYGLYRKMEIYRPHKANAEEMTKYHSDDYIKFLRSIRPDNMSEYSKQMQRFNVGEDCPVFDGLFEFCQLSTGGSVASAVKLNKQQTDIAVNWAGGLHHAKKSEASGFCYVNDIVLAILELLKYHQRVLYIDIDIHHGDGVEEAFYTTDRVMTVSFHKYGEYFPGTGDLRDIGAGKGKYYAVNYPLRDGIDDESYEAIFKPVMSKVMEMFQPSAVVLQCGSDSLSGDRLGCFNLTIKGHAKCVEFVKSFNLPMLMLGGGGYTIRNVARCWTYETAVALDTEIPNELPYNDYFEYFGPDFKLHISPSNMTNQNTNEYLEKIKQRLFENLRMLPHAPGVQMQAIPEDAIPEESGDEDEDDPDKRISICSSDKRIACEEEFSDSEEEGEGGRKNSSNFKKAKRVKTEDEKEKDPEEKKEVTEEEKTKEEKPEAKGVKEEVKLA
Histone deacetylase 3, sequence (O15379 whole entry): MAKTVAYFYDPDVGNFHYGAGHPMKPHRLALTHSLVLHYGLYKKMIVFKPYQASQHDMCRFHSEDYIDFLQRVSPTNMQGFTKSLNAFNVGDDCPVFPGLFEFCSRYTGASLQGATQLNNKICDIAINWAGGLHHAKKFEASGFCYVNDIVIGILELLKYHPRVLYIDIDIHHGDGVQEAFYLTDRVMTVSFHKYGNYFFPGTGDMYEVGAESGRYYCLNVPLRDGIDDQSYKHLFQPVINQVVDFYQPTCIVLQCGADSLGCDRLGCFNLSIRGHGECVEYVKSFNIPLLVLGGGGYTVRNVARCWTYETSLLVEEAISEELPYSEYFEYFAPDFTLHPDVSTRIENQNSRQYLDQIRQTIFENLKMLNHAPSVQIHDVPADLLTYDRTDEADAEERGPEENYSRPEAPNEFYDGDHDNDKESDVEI

IC50 [1]	solubility [2]	IC50 [3]	microsomal CLint [4]	IC50 (Histone deacetylase 1)	IC50 (Histone deacetylase 3)	IC50 (Histone deacetylase 8)	IC50 [5]	IC50 (Histone deacetylase 11)	Stability [6]	SMILES
0.00398 µM	810 µM (≈ 282 µg/mL)	> 10 µM	< 3 µL/min/mg	17 µM	87 µM	16 µM	18 µM	13 µM	Stable	O=C(NO)c1cnc(NC2(c3ccccc3)CCC(F)(F)CC2)nc1
0.00158 µM	60 µM (≈ 23.1 µg/mL)	> 10 µM	< 3 µL/min/mg	> 100 µM	> 100 µM	> 100 µM	> 100 µM	> 100 µM		COc1ccccc1-c1nnn(Cc2ccc(-c3nnc(C(F)F)o3)cn2)n1
0.00158 µM	110 µM (≈ 54.4 µg/mL)	> 10 µM	< 3 µL/min/mg	> 100 µM	> 100 µM	> 100 µM	> 100 µM	> 100 µM	Unstable	CS(=O)(=O)NCC(Nc1ncc(-c2nnc(C(F)F)o2)cn1)c1ccc(OC(F)(F)F)cc1 (centres undefined)
0.001 µM	410 µM (≈ 146 µg/mL)	> 10 µM	< 3 µL/min/mg	> 100 µM	> 100 µM	> 100 µM	> 100 µM	> 100 µM	Unstable	FC(F)c1nnc(-c2ccc(Cn3nnc(-c4ccccn4)n3)nc2)o1
